Patent EP0353416A2, “Use of ajoene and ajoene derivatives as cytostatics” (Gesellschaft für Biotechnologische Forschung mbH (GBF), priority 1988, dated 1990)

How the values were obtained:
[1] = Inhibition of proliferation by incorporation of radioactive thymidine, BHK cell culture; type: cell-based, Hamster; conditions: hamster; BHK cells; beyond the limit of reversible inhibition; read-out: irreversible, d. h. toxische Wirkung
Description: (§1) Man ließ Ajoen auf eine Zellkultur der SV40-transformierten Baby-Hamster-Kidney-Linie (BHK; Fibroblast) einwirken. Die Proliferationshemmung wurde über den Einbau von radioaktivem Thymidin getestet.

[2] = tested on: SV40-transformierten Baby-Hamster-Kidney-Linie (BHK; Fibroblast); assay: as above; type: cell-based; conditions: BHK cells
Description: as §1

[3] = tested on: Hela-Zellen; assay: Inhibition of proliferation (thymidine incorporation), Hela cells; type: cell-based; conditions: Hela cells (Beispiel 3)
Experimental: (§2) Man ließ Ajoen auf eine Zellkultur der SV40-transformierten Baby-Hamster-Kidney-Linie (BHK; Fibroblast) einwirken. Die Proliferationshemmung wurde über den Einbau von radioaktivem Thymidin getestet. Sie ließ sich ab 1 µg Ajoen/ml ermitteln. Die Figur zeigt eine typische Hemmkurve. Der Figur läßt sich entnehmen, daß die Ki-Werte (50 %) im Bereich von etwa 1 bis 10 und insbesondere etwa 2 bis 5 µg Ajoen/ml lagen.
(§3) Beispiel 1 wurde ferner abweichend mit folgenden Linien nachgearbeitet: Hela-Zellen (Beispiel 3), LTK-Mäusezellen (Fibro blasten; Beispiel 4) und humane FS4-Vorhautzellen (Fibroblast). Auch bei diesen Beispielen wurde die cytostatische und cytotoxische Wirkung des Ajoens bestätigt.

[4] = tested on: LTK-Mäusezellen (Fibroblasten); assay: Inhibition of proliferation (thymidine incorporation), LTK mouse cells; type: cell-based, Mäuse; conditions: LTK mouse cells (Beispiel 4)
Experimental: as §2, §3

[5] = tested on: humane FS4-Vorhautzellen (Fibroblast); assay: Inhibition of proliferation (thymidine incorporation), human FS4 foreskin cells; type: cell-based
Experimental: as §2, §3

## C=CCSSC=CC[S+]([O-])CC=C (stereo not drawn) [Ajoen]
[1]
  MCC: > 20 µg/mL
[2]; upper concentration of reversible inhibition
  Hemmung der Proliferation reversibel bis zu: ≤ 20 µg Ajoen/ml
[2]; Mesocricetus auratus, lowest concentration at which inhibition was detectable, thymidine incorporation, read-out: Proliferationshemmung ließ sich ermitteln ab
  minimal effective concentration: ≥ 1 µg/mL
[3]
  cytostatische und cytotoxische Wirkung: bestätigt
[4]
  cytostatische und cytotoxische Wirkung: bestätigt
[5]
  cytostatische und cytotoxische Wirkung: bestätigt
